Data published in paper PMC5216056 (Nature Communications, 2017).
Like-named read-outs stand apart in the source and are kept apart here.

Columns and labels:
hCB1R [1] = biological target: T1, hCB1R (Homo sapiens, UniProt P21554); assay: cell-based; conditions: for Emax: read-out: Emax ± SEM cAMP hCB1R
T1 construct: host or cells: CHO

hCB1R [2] = biological target: T1, hCB1R; assay: cell-based; format: cell-based; conditions: for Emax: read-out: Emax ± SEM pERK hCB1R
[3] = logD distribution coefficient
[4] = 1 μM
Rat recombinant TRPV4 = biological target: T2, Rat recombinant TRPV4 (Rattus norvegicus, UniProt Q9ERZ8); assay: cell-based; format: cell-based; conditions: for IC50: vs 4αPDD 1μM, read-out: TRPV4 IC50 for desensitization
T2 construct: expressed in transfected cells; host or cells: HEK293 (TRPV4-HEK-293, gift from HB Bradshaw, Indiana University)

hABHD12 = biological target: T3, hABHD12 (Homo sapiens, UniProt Q8N2K0); assay: ABHD12 activity; format: biochemical; conditions: for ABHD12 % inhibition: single point
T3 construct: expressed in transfected cells
T3 sequence (Q8N2K0 1-398): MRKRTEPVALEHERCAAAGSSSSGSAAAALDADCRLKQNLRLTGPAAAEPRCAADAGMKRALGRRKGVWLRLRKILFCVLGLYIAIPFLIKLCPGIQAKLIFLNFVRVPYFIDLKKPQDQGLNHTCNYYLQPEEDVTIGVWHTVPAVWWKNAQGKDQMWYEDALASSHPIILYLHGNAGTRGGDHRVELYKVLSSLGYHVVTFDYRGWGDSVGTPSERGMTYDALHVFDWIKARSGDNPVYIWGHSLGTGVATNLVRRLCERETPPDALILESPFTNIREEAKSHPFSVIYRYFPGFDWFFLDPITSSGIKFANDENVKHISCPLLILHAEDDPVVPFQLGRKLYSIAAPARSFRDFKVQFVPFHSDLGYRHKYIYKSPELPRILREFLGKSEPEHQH
From the text: HEK293T cells were obtained from American Type Culture Collection (ATCC, Manassas, VA, USA). Lipofectamine 2000 was obtained from Life Technologies (Carlsbad, CA, USA) and geneticin from InvivoGen. Cell culture medium, FBS, and cell culture supplements were from Invitrogen (Carlsbad, CA, USA). pCMV6-AC-hABHD6 and pCMV6-XL4-hABHD12 were a kind gift from Prof Jarmo T. Laitinen. hABHD12 sequence was subsequently inserted in a pcDNA3.1 plasmid in order to generate a stable cell line. The effect of CB2R ligands on ABHD6 and ABHD12 hydrolytic activity was determined using cell homogenate from hABHD6 and hABHD12 overexpressing HEK293T cells (40 μg total protein per condition). Samples were pre-incubated with the compounds (10 μM in the screening assay and concentrations in the range 1 nM—50 μM for the dose-response curves) in […] (pH=7.6) buffer containing 0.1%(w/v) BSA. DMSO was used as vehicle control and WWL70 10 μM or THL 20 μM as positive controls. [^3H]-2-OG (10 μM final concentration) was added and after incubation of 5 min at 37 °C, the reaction was stopped by the addition of 400 μl of ice-cold CHCl3:MeOH (1:1). The samples were vortex and centrifuged (16,100g 10 min 4 °C). Aliquots (200 μl) of the aqueous phase were assayed for tritium content by liquid scintillation spectroscopy. The values obtained for each measurement were corrected for non-specific hydrolysis (non-ABHD6 mediated) by subtracting the signal obtained in the hydrolysis of [^3H]- 2-OG by non-transfected HEK293T.

Rat recombinant TRPM8 = biological target: T4, Rat recombinant TRPM8 (Rattus norvegicus, UniProt Q8R455); assay: TRP channel [Ca2+]i assay; format: cell-based; conditions: read-out: TRPM8 IC50 for antagonism of icilin
T4 construct: expressed in transfected cells; host or cells: HEK293 (TRPM8-HEK-293, gift from Mario van der Stelt)

[5] = system: AEA cellular uptake in U937 cells; assay: cells; format: cell-based, human; conditions: for AEA reuptake Efficacy (% inhibition) U937 cells: from dose-response
beta 1 (h) = biological target: T5, beta 1 (h) (Homo sapiens, UniProt P08588); assay: biochemical; format: binding; conditions: for inhibition at 10 µM: read-out: % inhibition beta 1 (h)
T5 construct: CEREP

AT1 (h) = biological target: T6, AT1 (h) (Homo sapiens, UniProt P30556); assay: CEREP panel; format: binding; conditions: for inhibition at 10 µM: read-out: % inhibition AT1 (h)
T6 construct: CEREP
T6 sequence (P30556 1-359): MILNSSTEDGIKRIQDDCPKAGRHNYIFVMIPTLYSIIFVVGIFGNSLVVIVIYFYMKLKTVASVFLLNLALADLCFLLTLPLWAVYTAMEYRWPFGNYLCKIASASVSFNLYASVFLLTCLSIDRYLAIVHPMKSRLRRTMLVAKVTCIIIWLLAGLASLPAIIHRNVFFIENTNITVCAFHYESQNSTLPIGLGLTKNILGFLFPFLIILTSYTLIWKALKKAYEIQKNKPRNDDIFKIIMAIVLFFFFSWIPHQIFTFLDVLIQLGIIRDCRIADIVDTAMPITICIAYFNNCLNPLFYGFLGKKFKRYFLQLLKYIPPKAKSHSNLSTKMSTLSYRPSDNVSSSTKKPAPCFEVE

alpha 1A (h) = biological target: T7, alpha 1A (h) (Homo sapiens, UniProt P35348); assay: CEREP panel; format: binding; conditions: for inhibition at 10 µM: read-out: % inhibition alpha 1A (h)
T7 construct: CEREP
T7 sequence (P35348 1-466): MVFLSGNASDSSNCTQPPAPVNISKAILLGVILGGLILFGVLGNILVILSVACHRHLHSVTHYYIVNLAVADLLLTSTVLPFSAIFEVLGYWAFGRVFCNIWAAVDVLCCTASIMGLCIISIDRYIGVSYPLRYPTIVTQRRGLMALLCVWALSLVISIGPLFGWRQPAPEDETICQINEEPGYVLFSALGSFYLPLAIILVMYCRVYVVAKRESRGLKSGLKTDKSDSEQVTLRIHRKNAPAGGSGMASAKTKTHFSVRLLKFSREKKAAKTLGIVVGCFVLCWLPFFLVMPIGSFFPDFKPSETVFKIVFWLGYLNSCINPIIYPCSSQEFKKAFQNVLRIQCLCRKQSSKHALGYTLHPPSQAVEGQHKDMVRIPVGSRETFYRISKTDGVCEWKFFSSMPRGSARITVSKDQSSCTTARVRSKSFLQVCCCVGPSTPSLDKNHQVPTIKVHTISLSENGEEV

N muscle-type (h) = biological target: T8, N muscle-type (h) (Homo sapiens, UniProt P02708+P07510+P11230+Q07001); assay: CEREP panel; format: binding; conditions: for % inhibition N muscle-type (h): 10 µM
T8 construct: CEREP (contract assay)

PCP = format: binding; conditions: 10 µM
[6] = biological target: T9, norepinephrine transporter (h) (Homo sapiens, UniProt P23975); assay: biochemical; format: binding; conditions: for inhibition at 10 µM: read-out: % inhibition norepinephrine transporter (h)
T9 construct: CEREP (contract assay)

[7] = read-out: AEA reuptake IC50 (95% CI) U937 cells
[8] = Homo sapiens, U-937, read-out: AEA reuptake IC50 (95% CI) U937 cells

T2 sequence (Q9ERZ8 whole entry): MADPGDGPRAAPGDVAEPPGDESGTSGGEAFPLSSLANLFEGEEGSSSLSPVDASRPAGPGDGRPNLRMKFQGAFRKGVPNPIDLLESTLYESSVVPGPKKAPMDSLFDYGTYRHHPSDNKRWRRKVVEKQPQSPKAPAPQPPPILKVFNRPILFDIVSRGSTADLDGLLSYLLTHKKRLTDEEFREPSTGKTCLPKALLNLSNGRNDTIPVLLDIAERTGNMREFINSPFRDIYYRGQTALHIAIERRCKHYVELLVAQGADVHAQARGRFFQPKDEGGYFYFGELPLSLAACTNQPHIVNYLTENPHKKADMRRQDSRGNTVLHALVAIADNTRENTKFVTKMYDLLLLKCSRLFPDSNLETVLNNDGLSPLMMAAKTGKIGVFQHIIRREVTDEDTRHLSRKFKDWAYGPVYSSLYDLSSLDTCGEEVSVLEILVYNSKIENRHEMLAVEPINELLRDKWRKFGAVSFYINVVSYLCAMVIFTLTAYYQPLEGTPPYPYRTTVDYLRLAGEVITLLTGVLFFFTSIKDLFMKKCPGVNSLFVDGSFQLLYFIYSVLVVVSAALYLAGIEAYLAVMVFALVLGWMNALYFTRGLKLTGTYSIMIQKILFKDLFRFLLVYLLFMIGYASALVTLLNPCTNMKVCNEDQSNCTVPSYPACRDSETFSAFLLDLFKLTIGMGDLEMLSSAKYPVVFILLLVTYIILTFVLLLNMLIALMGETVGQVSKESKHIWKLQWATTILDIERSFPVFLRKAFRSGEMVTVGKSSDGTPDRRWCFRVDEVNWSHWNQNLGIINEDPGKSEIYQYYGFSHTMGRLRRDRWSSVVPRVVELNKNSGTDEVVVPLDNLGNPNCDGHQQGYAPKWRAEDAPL
T4 sequence (Q8R455 whole entry): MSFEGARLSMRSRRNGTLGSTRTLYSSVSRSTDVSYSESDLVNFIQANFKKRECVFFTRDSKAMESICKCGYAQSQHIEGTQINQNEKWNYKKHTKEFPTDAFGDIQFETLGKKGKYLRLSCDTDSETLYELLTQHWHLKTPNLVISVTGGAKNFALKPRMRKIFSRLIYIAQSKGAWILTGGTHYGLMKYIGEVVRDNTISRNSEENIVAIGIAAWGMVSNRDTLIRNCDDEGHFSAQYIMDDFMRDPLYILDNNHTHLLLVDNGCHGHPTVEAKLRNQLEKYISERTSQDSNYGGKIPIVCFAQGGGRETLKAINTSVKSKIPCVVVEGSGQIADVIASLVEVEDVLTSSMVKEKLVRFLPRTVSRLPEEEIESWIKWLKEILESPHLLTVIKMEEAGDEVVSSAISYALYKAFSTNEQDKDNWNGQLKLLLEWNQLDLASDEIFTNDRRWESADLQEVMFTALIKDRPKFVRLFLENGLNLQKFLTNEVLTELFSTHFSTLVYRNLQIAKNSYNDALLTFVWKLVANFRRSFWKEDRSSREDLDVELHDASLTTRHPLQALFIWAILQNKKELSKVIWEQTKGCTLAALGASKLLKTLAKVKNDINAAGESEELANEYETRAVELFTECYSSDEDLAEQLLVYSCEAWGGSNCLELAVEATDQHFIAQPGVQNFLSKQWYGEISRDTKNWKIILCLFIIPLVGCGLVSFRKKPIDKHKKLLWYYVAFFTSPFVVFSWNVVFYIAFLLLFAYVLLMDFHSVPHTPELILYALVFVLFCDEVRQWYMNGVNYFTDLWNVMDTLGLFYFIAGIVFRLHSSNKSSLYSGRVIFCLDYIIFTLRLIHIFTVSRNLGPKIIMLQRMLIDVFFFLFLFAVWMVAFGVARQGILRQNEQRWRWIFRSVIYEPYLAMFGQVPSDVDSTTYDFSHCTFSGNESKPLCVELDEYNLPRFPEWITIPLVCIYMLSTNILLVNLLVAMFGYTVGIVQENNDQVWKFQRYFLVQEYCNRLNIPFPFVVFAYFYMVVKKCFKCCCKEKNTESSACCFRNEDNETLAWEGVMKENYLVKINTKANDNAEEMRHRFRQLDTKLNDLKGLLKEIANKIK
T8 sequence (P02708 21-457): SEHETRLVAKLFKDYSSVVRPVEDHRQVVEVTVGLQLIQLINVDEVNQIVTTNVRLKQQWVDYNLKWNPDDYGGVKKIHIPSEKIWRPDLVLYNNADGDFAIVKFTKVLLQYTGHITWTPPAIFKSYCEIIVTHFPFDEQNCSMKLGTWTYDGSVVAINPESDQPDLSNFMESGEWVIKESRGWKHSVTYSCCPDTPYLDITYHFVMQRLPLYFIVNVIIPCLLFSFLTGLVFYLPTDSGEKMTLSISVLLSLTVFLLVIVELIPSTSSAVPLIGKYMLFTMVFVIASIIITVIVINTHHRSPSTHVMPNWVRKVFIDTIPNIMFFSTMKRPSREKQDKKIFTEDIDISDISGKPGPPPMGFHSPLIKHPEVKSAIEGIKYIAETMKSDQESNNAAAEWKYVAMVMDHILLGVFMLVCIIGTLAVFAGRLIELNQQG
T8 sequence (P11230 24-501): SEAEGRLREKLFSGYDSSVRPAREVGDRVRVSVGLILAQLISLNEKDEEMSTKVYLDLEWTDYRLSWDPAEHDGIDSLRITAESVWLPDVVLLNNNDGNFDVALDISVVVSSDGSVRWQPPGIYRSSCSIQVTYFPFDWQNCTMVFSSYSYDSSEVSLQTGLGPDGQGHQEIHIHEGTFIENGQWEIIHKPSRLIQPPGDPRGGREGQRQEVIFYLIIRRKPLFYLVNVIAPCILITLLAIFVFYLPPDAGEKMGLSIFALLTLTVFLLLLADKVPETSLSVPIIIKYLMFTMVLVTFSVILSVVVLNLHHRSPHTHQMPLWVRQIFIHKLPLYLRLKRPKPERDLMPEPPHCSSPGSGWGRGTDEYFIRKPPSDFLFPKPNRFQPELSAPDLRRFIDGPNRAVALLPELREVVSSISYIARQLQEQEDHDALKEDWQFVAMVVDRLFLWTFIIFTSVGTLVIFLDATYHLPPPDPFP
T8 sequence (Q07001 22-517): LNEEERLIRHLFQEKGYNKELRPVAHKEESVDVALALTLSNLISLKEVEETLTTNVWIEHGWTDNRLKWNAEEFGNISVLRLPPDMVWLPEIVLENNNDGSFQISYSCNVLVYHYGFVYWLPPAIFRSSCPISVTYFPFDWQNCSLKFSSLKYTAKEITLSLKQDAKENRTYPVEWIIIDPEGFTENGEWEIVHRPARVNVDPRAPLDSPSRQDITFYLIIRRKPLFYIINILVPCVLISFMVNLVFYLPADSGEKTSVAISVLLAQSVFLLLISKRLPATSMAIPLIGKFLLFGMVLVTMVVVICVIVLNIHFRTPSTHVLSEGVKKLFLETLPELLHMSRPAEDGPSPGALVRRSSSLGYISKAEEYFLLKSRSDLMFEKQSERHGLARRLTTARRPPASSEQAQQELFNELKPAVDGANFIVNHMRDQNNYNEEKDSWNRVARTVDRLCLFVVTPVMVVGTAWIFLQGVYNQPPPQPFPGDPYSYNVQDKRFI
T8 sequence (P07510 23-517): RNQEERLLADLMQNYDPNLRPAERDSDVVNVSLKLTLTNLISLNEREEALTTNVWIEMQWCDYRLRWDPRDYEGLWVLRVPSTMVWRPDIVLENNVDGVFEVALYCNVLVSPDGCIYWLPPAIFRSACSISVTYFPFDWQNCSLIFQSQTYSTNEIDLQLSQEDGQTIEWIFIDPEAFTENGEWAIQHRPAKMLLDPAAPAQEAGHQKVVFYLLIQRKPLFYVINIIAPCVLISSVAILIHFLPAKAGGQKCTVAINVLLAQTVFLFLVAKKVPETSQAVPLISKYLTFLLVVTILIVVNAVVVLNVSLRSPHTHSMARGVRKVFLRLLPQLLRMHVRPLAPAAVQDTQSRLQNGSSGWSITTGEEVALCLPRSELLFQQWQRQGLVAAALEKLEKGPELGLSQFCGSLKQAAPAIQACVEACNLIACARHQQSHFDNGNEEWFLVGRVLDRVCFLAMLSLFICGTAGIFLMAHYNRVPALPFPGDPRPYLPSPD
T1 sequence (P21554 whole entry): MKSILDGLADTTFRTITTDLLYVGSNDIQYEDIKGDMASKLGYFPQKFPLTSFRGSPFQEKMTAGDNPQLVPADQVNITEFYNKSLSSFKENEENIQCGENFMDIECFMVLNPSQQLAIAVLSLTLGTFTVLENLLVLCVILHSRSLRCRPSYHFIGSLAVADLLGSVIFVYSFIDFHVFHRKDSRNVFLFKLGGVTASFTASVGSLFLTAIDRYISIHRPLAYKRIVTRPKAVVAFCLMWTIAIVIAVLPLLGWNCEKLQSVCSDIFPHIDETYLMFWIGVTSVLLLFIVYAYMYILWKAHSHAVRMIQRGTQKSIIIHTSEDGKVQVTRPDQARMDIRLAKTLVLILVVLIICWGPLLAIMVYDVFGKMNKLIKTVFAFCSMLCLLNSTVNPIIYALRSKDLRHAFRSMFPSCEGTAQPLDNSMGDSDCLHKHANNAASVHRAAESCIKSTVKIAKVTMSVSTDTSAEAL
T9 sequence (P23975 whole entry): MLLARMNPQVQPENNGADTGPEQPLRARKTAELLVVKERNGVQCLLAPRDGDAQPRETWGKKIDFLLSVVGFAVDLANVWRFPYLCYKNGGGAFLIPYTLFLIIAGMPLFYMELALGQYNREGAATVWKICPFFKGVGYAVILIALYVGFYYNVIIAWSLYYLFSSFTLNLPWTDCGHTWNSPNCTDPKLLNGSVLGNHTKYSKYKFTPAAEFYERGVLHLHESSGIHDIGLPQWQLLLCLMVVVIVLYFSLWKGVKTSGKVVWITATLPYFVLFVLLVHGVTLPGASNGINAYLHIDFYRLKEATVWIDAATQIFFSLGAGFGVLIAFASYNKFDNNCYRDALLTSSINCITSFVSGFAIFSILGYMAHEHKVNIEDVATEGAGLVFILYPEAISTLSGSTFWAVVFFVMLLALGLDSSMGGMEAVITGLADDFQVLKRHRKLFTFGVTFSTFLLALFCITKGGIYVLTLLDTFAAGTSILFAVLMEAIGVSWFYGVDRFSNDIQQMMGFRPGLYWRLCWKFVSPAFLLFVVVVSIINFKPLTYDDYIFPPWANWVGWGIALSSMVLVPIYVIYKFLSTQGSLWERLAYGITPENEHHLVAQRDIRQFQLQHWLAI

Compound | Emax ± SEM pERK hCB1R (hCB1R [2]) | logD ([3]; distribution coefficient) | CL microsomes mouse [4] | TRPV4 Efficacy (% ionomycin 4μM) (Rat recombinant TRPV4) | IC50 (Rat recombinant TRPV4) | AEA reuptake Efficacy (% inhibition) U937 cells [5] | IC50 [5, 7] | % inhibition beta 1 (h) (beta 1 (h); 10 µM) | % inhibition AT1 (h) (AT1 (h); 10 µM) | % inhibition alpha 1A (h) (alpha 1A (h); 10 µM) | % inhibition N muscle-type (h) (N muscle-type (h)) | % inhibition PCP (PCP) | other results
CN1CCCCC1Cn1cc(C(=O)c2cc([N+](=O)[O-])ccc2I)c2ccccc21 (racemic) [(rac)-AM1241] | 86 ± 3 | 3.66±0.03 | 254 µL/min/mg protein |  |  |  |  |  |  |  |  |  | pEC50 ± SEM cAMP hCB1R (hCB1R [1]): < 5; pEC50 ± SEM pERK hCB1R (hCB1R [2]): 5.07 ± 0.05
CCCCC/C=C\C/C=C\C/C=C\C/C=C\CCCC(=O)OC(CO)CO [2-AG, 2-arachidonoyl glycerol] |  |  |  |  |  |  |  |  |  |  |  |  | Emax (hCB1R [1]): < 70%; Emax (hCB1R [2]): 111 ± 10%
CN1CCCC[C@@H]1Cn1cc(C(=O)c2cc([N+](=O)[O-])ccc2I)c2ccccc21 [(R)-AM1241] | 78 ± 12 | 3.66 | 314 µL/min/mg protein | < 10% | 8.7 ± 0.5 µM | 77% | 4.81 µM |  |  |  |  |  | ABHD12 % inhibition (hABHD12; 10 5 µM [sic]): < 25%; Emax ± SEM cAMP hCB1R (hCB1R [1]): 54 ± 7; pEC50 ± SEM cAMP hCB1R (hCB1R [1]): 6.17 ± 0.12; IC50 (Rat recombinant TRPM8; vs icilin […]): > 50 µM; pEC50 ± SEM pERK hCB1R (hCB1R [2]): 5.66 ± 0.19
Cc1c(C(=O)NN2CCCCC2)nn(-c2ccc(Cl)cc2Cl)c1-c1ccc(I)cc1 [AM251] |  |  |  | < 10% |  |  |  | 25% | 36% | 6% | 12% |  | IC50 (hABHD12; read-out: ABHD12 IC50 (95% CI), full dose-response): 1.6 µM
CCCCCCC(C)(C)c1ccc([C@@H]2C[C@H](O)CC[C@H]2CCCO)c(O)c1 [CP55940] |  |  |  |  |  |  |  |  |  |  |  | 1% | inhibition at 10 µM (beta 1 (h); 10 µM): 14%; inhibition at 10 µM ([6]; 10 µM): 89%; inhibition at 10 µM (AT1 (h); 10 µM): 63%; inhibition at 10 µM (alpha 1A (h); 10 µM): 57%; inhibition at 10 µM (N muscle-type (h)): -4%
CCCCCCC(C)(C)c1cc(OC)c([C@@H]2C=C(CO)[C@@H]3C[C@H]2C3(C)C)c(OC)c1 [HU308] |  |  |  | < 10% | > 100 µM | 62% |  |  |  |  |  | -9% | EC50 (hCB1R [1]; pEC50 ± SEM cAMP hCB1R): > 10 µM; Emax (hCB1R [1]): 18 ± 4%; IC50 (Rat recombinant TRPM8; vs icilin […]μM): > 100 µM; EC50 (hCB1R [2]): > 100 µM; Emax (hCB1R [2]): 18 ± 4%; inhibition at 10 µM (beta 1 (h)): -11%; inhibition at 10 µM [6]: 33%; logD [3]: 4.29; inhibition at 10 µM (AT1 (h)): 53%; inhibition at 10 µM (alpha 1A (h)): 2%; IC50 [5, 8]: 1.81 µM
Cc1c(C(=O)NN2CCCCC2)nn(-c2ccc(Cl)cc2Cl)c1-c1ccc(Cl)cc1 [SR141716A] |  |  |  | < 10% | 2 ± 0.1 µM | 57% |  |  |  |  |  |  | IC50 (hABHD12): 6.1 µM; IC50 (Rat recombinant TRPM8; icilin concentration not given): 0.041 ± 0.0109 µM; IC50 [5, 8]: 1.91 µM
Cc1c(C(=O)c2cccc3ccccc23)c2cccc3c2n1[C@H](CN1CCOCC1)CO3 [WIN55212-2] |  | 3.67±0.03 | 745 µL/min/mg protein | < 10% | 16.1 ± 1.7 µM | 52% | 4.65 µM | 6% | 29% | 15% | 7% | -3% | ABHD12 % inhibition (hABHD12; 10 5 µM [sic]): < 50%; IC50 (Rat recombinant TRPM8; vs icilin 0.1μM (second value in cell)): 19 ± 2.2 µM; IC50 (Rat recombinant TRPM8; vs icilin […]): 72.9 ± 4.5 µM; % inhibition norepinephrine transporter (h) ([6]; 10 µM): 33%
SR144528 | -21 ± 2 |  |  | < 10% |  |  | > 10 µM | 41% | 33% | -1% | -3% | -13% | ABHD12 % inhibition (hABHD12): < 25%; % inhibition norepinephrine transporter (h) ([6]; 10 µM): 29%; AEA reuptake % inhibition, effect at 10 µM, U937 cells ([5]; 10 µM (values marked *)): 30%
